From patent US12673946B2, “Pyrimidin-4(3H)-one derivatives as TRPV4 antagonists” (RaQualia Pharma Inc., priority 2020, dated 2026)

Target: T1, human TRPV4 (Homo sapiens, UniProt Q9HBA0)
T1 construct: host or cells: tetracycline-inducible Flp-In T-REx 293 cells
Assay: Hypotonicity-induced Ca2+ influx (Fluo-4, FDSS)
Assay type: cell-based
How it was run: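 Flp-In T-REx 293 cells with tetracycline-induced human TRPV4, loaded with Fluo-4 for 60 min at 25 °C. Compound added 5 min before hypotonic mannitol/CaCl2 solution. Ca2+ signal recorded for 4.5 min on FDSS.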

[1] = Flp-In T-REx 293 cells expressing human TRPV4, examples listed under heading 'Human IC50<50 nM'
[2] = Flp-In T-REx 293 cells stably expressing human TRPV4, compounds listed by potency bin (<10 nM Tables 96-1/96-2, <3 nM Table 97)

T1 sequence (Q9HBA0 whole entry): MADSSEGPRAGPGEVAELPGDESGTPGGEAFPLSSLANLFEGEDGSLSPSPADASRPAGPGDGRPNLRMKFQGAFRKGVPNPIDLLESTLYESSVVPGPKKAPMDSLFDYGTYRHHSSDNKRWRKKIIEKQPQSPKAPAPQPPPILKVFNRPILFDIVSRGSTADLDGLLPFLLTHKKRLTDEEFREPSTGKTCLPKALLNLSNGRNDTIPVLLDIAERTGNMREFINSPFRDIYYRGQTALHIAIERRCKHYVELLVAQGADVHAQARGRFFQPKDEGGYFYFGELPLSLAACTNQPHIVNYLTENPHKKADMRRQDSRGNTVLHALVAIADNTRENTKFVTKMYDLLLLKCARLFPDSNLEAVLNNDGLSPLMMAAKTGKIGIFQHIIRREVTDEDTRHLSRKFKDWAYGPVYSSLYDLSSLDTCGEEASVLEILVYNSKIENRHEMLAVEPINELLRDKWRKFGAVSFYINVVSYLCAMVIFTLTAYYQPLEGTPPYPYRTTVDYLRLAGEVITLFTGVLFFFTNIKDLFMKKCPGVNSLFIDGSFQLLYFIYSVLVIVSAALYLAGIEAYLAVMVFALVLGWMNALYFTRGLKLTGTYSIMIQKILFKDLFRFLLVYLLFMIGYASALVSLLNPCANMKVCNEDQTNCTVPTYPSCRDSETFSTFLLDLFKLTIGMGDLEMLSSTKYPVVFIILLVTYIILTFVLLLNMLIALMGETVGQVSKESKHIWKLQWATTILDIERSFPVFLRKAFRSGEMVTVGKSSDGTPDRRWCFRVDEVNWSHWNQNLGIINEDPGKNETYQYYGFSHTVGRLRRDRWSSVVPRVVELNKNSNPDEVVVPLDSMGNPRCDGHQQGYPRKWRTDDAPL

IC50 [1] [nM]	IC50 [2] [nM]	Compound
< 50	< 10	CC(C)c1cccc(C2(c3nc4c(c(=O)[nH]3)CN(C(=O)C(O)c3cccc(-c5ccnc(C(F)(F)F)c5)c3)CCC4)CC2)c1 (stereo not drawn) [51-1]
< 50	< 10	CC(C)c1cc(C2(c3nc4c(c(=O)[nH]3)CN(C(=O)[C@H](O)c3cccc(C(F)(F)F)c3)CCC4)CC2)ccn1 [32-1]
< 50	< 3	O=C(N1CCCc2nc(C3(c4cccc(F)c4)CC3)[nH]c(=O)c2C1)C(F)(F)c1cccc(Cl)c1 [20-5]
< 50	< 3	O=C([C@H](O)c1cccc(-c2ccc(Cl)c(C(F)(F)F)c2)c1)N1CCc2nc(C3(c4ccccc4)CC3)[nH]c(=O)c2C1 [44-102]
< 50		COCCOc1cccc(-c2cccc(C(O)C(=O)N3CCc4nc(C5(c6ccccc6)CC5)[nH]c(=O)c4C3)c2)c1 (stereo not drawn) [44-29]
< 50	< 10	CC(C)c1cncc(C2(c3nc4c(c(=O)[nH]3)CN(C(=O)C(O)c3cccc(Cl)c3F)CCC4)CC2)c1 (stereo not drawn) [19-12]
< 50	< 3	O=C([C@H](O)c1cccc(-c2ccnc(C(F)(F)F)c2)c1)N1CCc2nc(C3(c4ccccc4)CC3)[nH]c(=O)c2C1 [44-79]
< 50	< 10	O=C(C(O)c1cccc(-c2cnc3ccccc3c2)c1)N1CCCc2nc(C3(c4ccccc4)CC3)[nH]c(=O)c2C1 (stereo not drawn) [49-1]
< 50	< 10	O=C(C(O)c1cccc(-c2cccc(C(F)(F)F)n2)c1)N1CCc2nc(C3(c4ccccc4)CC3)[nH]c(=O)c2C1 (stereo not drawn) [44-4]
< 50		O=C([C@H](O)c1cccc(-c2ccc3c(c2)CCO3)c1)N1CCc2nc(C3(c4ccccc4)CC3)[nH]c(=O)c2C1 [44-116]
< 50	< 10	CC(C)(C)CCc1csc(C2(c3nc4c(c(=O)[nH]3)CN(C(=O)[C@H](O)c3cccc(C(F)(F)F)c3)CCC4)CC2)c1 [30-4]
< 50	< 10	O=C(Cc1cccc(-c2cccc(C(F)(F)F)n2)c1)N1CCCc2nc(C3(c4cccc(Cl)c4)CC3)[nH]c(=O)c2C1 [57-7]
< 50		O=C(C(O)c1cccc(-c2cccc(Cl)c2)c1)N1CCc2nc(C3(c4ccccc4)CC3)[nH]c(=O)c2C1 (stereo not drawn) [44-21]
< 50	< 10	O=C([C@H](O)c1cccc(-c2cccc(C(F)(F)F)c2)c1)N1CCCc2nc(C3(c4cccs4)CC3)[nH]c(=O)c2C1 [53-1]
< 50	< 10	CC(C)c1cccc(C2(c3nc4c(c(=O)[nH]3)CN(C(=O)[C@H](O)c3cccc(C(F)(F)F)c3)CC4)CC2)c1 [27-1]
< 50		CC(C)N(C)C(=O)c1csc(C2(c3nc4c(c(=O)[nH]3)CN(C(=O)[C@H](O)c3cccc(C(F)(F)F)c3)CCC4)CC2)c1 [59-5]
< 50	< 3	CC(C)Cc1cccc(C2(c3nc4c(c(=O)[nH]3)CN(C(=O)[C@H](O)c3cccc(C(F)(F)F)c3)CCC4)CC2)c1 [31-6]
< 50	< 3	O=C([C@H](O)c1cccc(C(F)(F)F)c1)N1CCCc2nc(C3(c4cc(Br)cs4)CC3)[nH]c(=O)c2C1 [18-2]
< 50	< 3	O=C([C@H](O)c1cccc(-c2cccc(C(F)(F)F)n2)c1)N1CCc2nc(C3(c4cccc(Cl)c4)CC3)[nH]c(=O)c2C1 [45-6]

IC50 [1] [nM]	IC50 [2] [nM]	Compound
< 50		O=C([C@H](O)c1cccc(-c2cccc(F)c2)c1)N1CCc2nc(C3(c4ccccc4)CC3)[nH]c(=O)c2C1 [44-70]
< 50		O=C(C(O)c1cccc(-c2cc(F)ccc2Cl)c1)N1CCc2nc(C3(c4ccccc4)CC3)[nH]c(=O)c2C1 (stereo not drawn) [44-28]
< 50	< 10	O=C(Cc1cccc(-c2coc3ccccc23)c1)N1CCCc2nc(C3(c4ccccc4)CC3)[nH]c(=O)c2C1 [17-137]
< 50	< 10	O=C(/C=C/c1cccc(C(F)(F)F)c1)N1CCCc2nc(C3(c4cccc(Cl)c4)CC3)[nH]c(=O)c2C1 [17-117]
< 50	< 10	O=C([C@H](O)c1cccc(-c2cc3ccccc3s2)c1)N1CCCc2nc(C3(c4cccc(Cl)c4)CC3)[nH]c(=O)c2C1 [50-2]
< 50	< 3	O=C([C@H](O)c1cccc(C(F)(F)F)c1)N1CCCc2nc(C3(c4cccc(C5CCC(F)(F)CC5)c4)CC3)[nH]c(=O)c2C1 [31-2]
< 50		CN(C)Cc1cccc(-c2cccc(C3(c4nc5c(c(=O)[nH]4)CN(C(=O)[C@H](O)c4cccc(C(F)(F)F)c4)CCC5)CC3)c2)c1 [42-36]
< 50	< 10	CC(C)c1cncc(C2(c3nc4c(c(=O)[nH]3)CN(C(=O)C(F)(F)c3cccc(Cl)c3F)CCC4)CC2)c1 [22-8]
< 50	< 10	CC(C)c1cccc(C2(c3nc4c(c(=O)[nH]3)CN(C(=O)Cc3cccc(-c5cccc(C(F)(F)F)c5)c3)CC4)CC2)c1 [27-6]
< 50	< 3	O=C([C@H](O)c1cccc(Cl)c1)N1CCCc2nc(C3(c4cccc(-c5coc6ccccc56)c4)CC3)[nH]c(=O)c2C1 [40-19]
< 50		O=C(Cc1cccc(-c2ccc(Cl)cc2)c1)N1CCc2nc(C3(c4cccc(Cl)c4)CC3)[nH]c(=O)c2C1 [14-119]
< 50	< 10	Cc1cc(Cl)cc(-c2cccc(C(O)C(=O)N3CCc4nc(C5(c6ccccc6)CC5)[nH]c(=O)c4C3)c2)c1 (stereo not drawn) [44-16]
< 50		O=C(C(O)c1cccc(-c2ccc(Cl)cc2)c1)N1CCc2nc(C3(c4ccccc4)CC3)[nH]c(=O)c2C1 (stereo not drawn) [44-36]
< 50		O=C([C@H](O)c1cccc(Cl)c1)N1CCc2nc(C3(c4ccc(Cl)cc4)CC3)[nH]c(=O)c2C1 [3-21]
< 50	< 3	O=C([C@H](O)c1cccc(-c2cccc(OC(F)(F)F)c2)c1)N1CCCc2nc(C3(c4cccs4)CC3)[nH]c(=O)c2C1 [53-2]
< 50	< 10	O=C([C@H](O)c1cccc(-c2cccc(SC(F)(F)F)c2)c1)N1CCCc2nc(C3(c4ccccc4)CC3)[nH]c(=O)c2C1 [49-53]
< 50	< 10	O=C(CN1CCc2ccccc21)N1CC=C(c2cccc(C3(c4nc5c(c(=O)[nH]4)CN(C(=O)[C@H](O)c4cccc(C(F)(F)F)c4)CCC5)CC3)c2)CC1 [42-74]
< 50	< 3	O=C([C@H](O)c1cccc(-c2ccc(OCc3ccccc3)nc2)c1)N1CCCc2nc(C3(c4ccccc4)CC3)[nH]c(=O)c2C1 [49-38]
< 50	< 3	Cn1c(=O)oc2cc(-c3cccc(C4(c5nc6c(c(=O)[nH]5)CN(C(=O)[C@H](O)c5cccc(C(F)(F)F)c5)CCC6)CC4)c3)ccc21 [42-14]

IC50 [1] [nM]	IC50 [2] [nM]	Compound
< 50	< 3	O=C([C@H](O)c1cccc(Cl)c1)N1CCCc2nc(C3(c4cccc(Oc5ccccc5)c4)CC3)[nH]c(=O)c2C1 [17-73]
< 50	< 10	O=C([C@H](O)c1cccc(C(F)(F)F)c1F)N1CCCc2nc(C3(c4cncc(-c5ccccc5)c4)CC3)[nH]c(=O)c2C1 [19-3]
< 50	< 3	O=C(CCc1ccccc1)N1CCC(c2cccc(C3(c4nc5c(c(=O)[nH]4)CN(C(=O)[C@H](O)c4cccc(C(F)(F)F)c4)CCC5)CC3)c2)CC1 [31-11]
< 50	< 10	O=C(C(O)c1cccc(-c2cccc(F)c2)c1)N1CCc2nc(C3(c4cccc(Cl)c4)CC3)[nH]c(=O)c2C1 (stereo not drawn) [14-12]
< 50	< 10	CC(C)c1cccc(C2(c3nc4c(c(=O)[nH]3)CN(C(=O)C(O)c3cccc(C(F)(F)F)c3F)CC4)CC2)c1 (stereo not drawn) [14-109]
< 50	< 3	O=C([C@H](O)c1cccc(-c2ccc(F)c(Cl)c2)c1)N1CCc2nc(C3(c4cccc(Cl)c4)CC3)[nH]c(=O)c2C1 [45-1]
< 50		O=C([C@H](O)c1cccc(Cl)c1)N1CCc2nc(C3(c4cccc(Br)c4)CC3)[nH]c(=O)c2C1 [14-26]
< 50	< 10	CC(C)(C)c1cccc(C(O)C(=O)N2CCCc3nc(C4(c5cccs5)CC4)[nH]c(=O)c3C2)c1 (stereo not drawn) [18-7]
< 50	< 10	O=C([C@H](O)c1cccc(C(F)(F)F)c1)N1CCCc2nc(C3(c4cccc(-c5csc6ccccc56)c4)CC3)[nH]c(=O)c2C1 [42-28]
< 50	< 10	O=C(C(O)c1cccc(-c2cc(Cl)cc(C(F)(F)F)c2)c1)N1CCc2nc(C3(c4ccccc4)CC3)[nH]c(=O)c2C1 (stereo not drawn) [44-3]
< 50	< 10	O=C([C@H](O)c1cccc(-c2csc3ccccc23)c1)N1CCCc2nc(C3(c4cccc(C5CCCCC5)c4)CC3)[nH]c(=O)c2C1 [52-6]
< 50	< 10	O=C([C@H](O)c1cccc(-c2cccc(Cl)c2)c1)N1CCCc2nc(C3(c4cccc(-c5csc6ccccc56)c4)CC3)[nH]c(=O)c2C1 [52-11]
< 50	< 10	O=C(C(O)c1cccc(-c2cc(C(F)(F)F)cc(C(F)(F)F)c2)c1)N1CCCc2nc(C3(c4ccccc4)CC3)[nH]c(=O)c2C1 (stereo not drawn) [49-2]
< 50		CC(C)c1cccc(C2(c3nc4c(c(=O)[nH]3)CN(C(=O)Cc3cccc(-c5cccc(Cl)c5)c3)CC4)CC2)c1 [27-5]
< 50	< 3	O=C(NC1CCCCC1)N1CC=C(c2cccc(C3(c4nc5c(c(=O)[nH]4)CN(C(=O)[C@H](O)c4cccc(C(F)(F)F)c4)CCC5)CC3)c2)CC1 [42-84]
< 50		CC(C)(C)c1ccc(-c2cccc(CC(=O)N3CCc4nc(C5(c6cccc(Cl)c6)CC5)[nH]c(=O)c4C3)c2)cc1 [14-116]
< 50	< 10	O=C([C@H](O)c1cccc(-c2cc(F)cc(Cl)c2)c1)N1CCCc2nc(C3(c4cccc(-c5csc6ccccc56)c4)CC3)[nH]c(=O)c2C1 [52-14]
< 50	< 10	O=C([C@H](O)c1cccc(C(F)(F)F)c1)N1CCCc2nc(C3(c4cccc(C5=CCN(S(=O)(=O)c6ccc(F)cc6)CC5)c4)CC3)[nH]c(=O)c2C1 [42-75]
